The text below walks through data of BindingDB's records for PubMed 1738111 (University of Texas, 1992).

A word on the pKi: it is −log10 of the Ki, conventionally taken in molar units. Lower therefore signals a large Ki.

pKi: −log10 of the molar value.

Chain of 5-hydroxytryptamine receptor 1B (P28564 whole entry): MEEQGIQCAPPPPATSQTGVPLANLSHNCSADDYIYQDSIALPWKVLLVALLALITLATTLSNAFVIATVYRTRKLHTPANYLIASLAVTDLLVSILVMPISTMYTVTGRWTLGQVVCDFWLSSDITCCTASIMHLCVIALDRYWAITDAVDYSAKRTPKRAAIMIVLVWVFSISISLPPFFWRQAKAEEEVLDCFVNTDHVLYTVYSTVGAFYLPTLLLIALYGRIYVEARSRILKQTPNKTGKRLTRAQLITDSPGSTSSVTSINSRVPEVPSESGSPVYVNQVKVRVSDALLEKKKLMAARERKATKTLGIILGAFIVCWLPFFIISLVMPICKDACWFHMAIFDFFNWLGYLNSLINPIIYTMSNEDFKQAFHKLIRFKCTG

This assay concerns the target 5-hydroxytryptamine receptor 1B (Rattus norvegicus, UniProt P28564).
`O=C(c1ccc(F)cc1)C1CCN(CCn2c(=O)[nH]c3ccccc3c2=O)CC1` [3-(2-{4-[(4-fluorophenyl)carbonyl]piperidin-1-yl}ethyl)-1,2,3,4-tetrahydroquinazoline-2,4-dione] had a pKi of less than 5.00.

On to `O=C(CCCN1CCC2(CC1)C(=O)NCN2c1ccccc1)c1ccc(F)cc1` [8-[4-(4-fluorophenyl)-4-oxidanylidene-butyl]-1-phenyl-1,3,8-triazaspiro[4.5]decan-4-one], for which the pKi is less than 5.00.

`Clc1cccc(Cl)c1N=C1NCCN1` [2-(2,6-dichloroanilino)-2-imidazoline] had a pKi of less than 5.00.

On to `CN1C[C@@H](NS(=O)(=O)N(C)C)C[C@@H]2c3cccc4c3c(cn4C)C[C@H]21` [MESULERGINE], for which the pKi was less than 5.00.

`FC(F)(F)c1cccc(N2CCNCC2)c1` [TFMPP] gave a pKi of 7.08.

`CC[C@@H](CO)NC(=O)[C@@H]1C=C2c3cccc4c3c(cn4C)C[C@H]2N(C)C1` had a pKi of 6.41.

`c1ccc2nc(N3CCNCC3)ccc2c1` [2-Piperazin-1-yl-quinoline (Quipazine)] gave a negative-log Ki (pKi) of 6.60.

As to `Cc1ccc(N(CC2=NCCN2)c2cccc(O)c2)cc1` [SMR000059054], the pKi is 6.06.

Regarding `CN1CCN(c2nc3cc(C(F)(F)F)ccc3n3cccc23)CC1` [CAS_109028-10-6], the pKi is 7.49.

With `CN1C2CCC1CC(OC(=O)c1cc(Cl)cc(Cl)c1)C2` (stereo unspecified) [MDL 72222], the pKi was less than 5.00.

In turn, `CN1C2CCC1CC(OC(=O)c1c[nH]c3ccccc13)C2` (stereo unspecified) showed a pKi of less than 5.00.

Consider `Clc1cccc(N2CCNCC2)c1` [mCPP], for which the pKi is 7.02.

With `COc1cc2nc(N3CCN(C(=O)c4ccco4)CC3)nc(N)c2cc1OC` [[3H]-Minipress], the pKi was 6.54.

Regarding `NCCc1c[nH]c2ccc(C(N)=O)cc12` [[3H]-5-carboxamidotryptamine], the pKi is 8.40.

As for `CSc1ccc2c(c1)C(N1CCN(C)CC1)Cc1ccccc1S2` (stereo unspecified) [methanesulfonic acid;1-methyl-4-(3-methylsulfanyl-5,6-dihydrobenzo[b][1]benzothiepin-5-yl)piperazine], the pKi is 7.02.

The molecule `NCC(O)c1ccc(O)c(O)c1` (stereo not drawn) [Noradrenaline,(+)] gave a pKi of less than 5.00.
